Where a SMILES comes first, the peptide text is derived from it. [ ]: non-standard residue; d: D form. pGlu = O=C1CC[C@@H](C(=O)O)N1; Thz = O=C(O)[C@@H]1CSCN1

This passage reports AC50 results from ChEMBL document CHEMBL5291721, “A preclinical secondary pharmacology resource illuminates target-adverse drug reaction associations of marketed drugs” (Nat Commun, 2023).

The target in assay [1] is T1, Androgen receptor (Rattus norvegicus, UniProt P15207).
T1 sequence (P15207 whole entry): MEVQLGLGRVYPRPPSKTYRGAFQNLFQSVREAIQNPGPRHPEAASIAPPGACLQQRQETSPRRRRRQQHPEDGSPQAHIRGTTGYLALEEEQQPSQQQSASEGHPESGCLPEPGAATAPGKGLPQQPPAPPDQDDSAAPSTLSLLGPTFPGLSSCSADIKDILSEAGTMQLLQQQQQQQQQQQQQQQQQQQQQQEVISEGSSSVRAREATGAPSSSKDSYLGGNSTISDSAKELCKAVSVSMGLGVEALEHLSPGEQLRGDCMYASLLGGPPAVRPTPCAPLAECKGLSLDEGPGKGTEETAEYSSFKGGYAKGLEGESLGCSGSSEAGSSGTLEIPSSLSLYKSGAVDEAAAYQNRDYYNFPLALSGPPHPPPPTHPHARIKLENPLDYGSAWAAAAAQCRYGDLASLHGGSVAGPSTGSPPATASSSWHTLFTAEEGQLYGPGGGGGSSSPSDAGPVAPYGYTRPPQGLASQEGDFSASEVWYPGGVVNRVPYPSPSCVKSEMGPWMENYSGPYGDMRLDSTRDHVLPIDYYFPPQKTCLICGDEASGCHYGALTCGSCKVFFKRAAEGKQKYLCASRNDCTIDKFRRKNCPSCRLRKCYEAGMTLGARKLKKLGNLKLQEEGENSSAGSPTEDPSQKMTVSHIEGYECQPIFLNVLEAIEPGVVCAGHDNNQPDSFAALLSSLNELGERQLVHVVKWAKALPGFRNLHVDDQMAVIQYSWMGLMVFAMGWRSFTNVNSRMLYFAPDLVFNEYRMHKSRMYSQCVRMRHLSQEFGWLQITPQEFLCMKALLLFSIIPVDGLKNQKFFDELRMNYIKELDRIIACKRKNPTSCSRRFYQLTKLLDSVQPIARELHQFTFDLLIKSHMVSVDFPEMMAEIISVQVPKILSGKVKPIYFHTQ
Type of assay: functional.

Assay [2] deals with T1, Androgen receptor. Type of assay: functional. The source holds these as a separate data set.
For assay [3], the target named is T1, Androgen receptor.
Assay [4] has as its target T2, 5-hydroxytryptamine receptor 1A (Homo sapiens, UniProt P08908).
T2 sequence (P08908 whole entry): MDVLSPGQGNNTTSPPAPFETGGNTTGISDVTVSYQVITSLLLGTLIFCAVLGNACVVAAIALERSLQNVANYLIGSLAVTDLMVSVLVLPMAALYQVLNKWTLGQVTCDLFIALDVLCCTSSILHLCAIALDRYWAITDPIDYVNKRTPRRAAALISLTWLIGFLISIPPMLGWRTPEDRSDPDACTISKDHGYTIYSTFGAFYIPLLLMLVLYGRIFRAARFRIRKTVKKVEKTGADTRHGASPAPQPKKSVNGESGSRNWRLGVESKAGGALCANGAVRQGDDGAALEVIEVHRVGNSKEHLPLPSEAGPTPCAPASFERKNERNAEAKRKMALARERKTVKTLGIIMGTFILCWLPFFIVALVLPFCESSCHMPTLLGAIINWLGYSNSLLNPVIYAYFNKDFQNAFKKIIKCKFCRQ

A further assay has as its target T3, Progesterone receptor (Homo sapiens, UniProt P06401).
T3 sequence (P06401 whole entry): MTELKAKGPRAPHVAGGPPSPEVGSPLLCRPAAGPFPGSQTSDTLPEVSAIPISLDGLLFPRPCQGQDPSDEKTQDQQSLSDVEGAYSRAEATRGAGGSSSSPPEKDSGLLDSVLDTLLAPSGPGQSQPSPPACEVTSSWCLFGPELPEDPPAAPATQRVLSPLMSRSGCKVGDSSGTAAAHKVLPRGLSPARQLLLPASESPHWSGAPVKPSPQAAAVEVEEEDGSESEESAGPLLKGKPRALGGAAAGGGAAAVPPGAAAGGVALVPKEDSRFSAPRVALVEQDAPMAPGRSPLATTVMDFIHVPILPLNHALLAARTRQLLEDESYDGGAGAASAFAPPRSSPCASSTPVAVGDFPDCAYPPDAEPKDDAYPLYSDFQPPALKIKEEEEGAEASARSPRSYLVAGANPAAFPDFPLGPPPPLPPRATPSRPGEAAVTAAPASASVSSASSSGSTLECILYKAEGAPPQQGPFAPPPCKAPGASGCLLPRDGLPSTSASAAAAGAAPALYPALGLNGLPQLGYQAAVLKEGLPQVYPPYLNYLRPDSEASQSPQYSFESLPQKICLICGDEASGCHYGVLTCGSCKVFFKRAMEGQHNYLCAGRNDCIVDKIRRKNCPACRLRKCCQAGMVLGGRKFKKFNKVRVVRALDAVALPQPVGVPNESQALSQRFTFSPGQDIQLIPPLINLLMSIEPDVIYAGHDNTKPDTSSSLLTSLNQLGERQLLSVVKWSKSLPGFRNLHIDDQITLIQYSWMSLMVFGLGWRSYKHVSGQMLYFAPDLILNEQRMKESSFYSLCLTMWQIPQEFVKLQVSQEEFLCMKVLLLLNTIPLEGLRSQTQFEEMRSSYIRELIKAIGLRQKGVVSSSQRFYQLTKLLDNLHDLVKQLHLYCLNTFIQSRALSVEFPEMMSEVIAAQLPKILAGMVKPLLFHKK

Another assay has as its target Estrogen receptor beta (Homo sapiens, UniProt Q92731).
Assay [5] concerns the target T4, Alpha-1A adrenergic receptor (Homo sapiens, UniProt P35348).
T4 sequence (P35348 whole entry): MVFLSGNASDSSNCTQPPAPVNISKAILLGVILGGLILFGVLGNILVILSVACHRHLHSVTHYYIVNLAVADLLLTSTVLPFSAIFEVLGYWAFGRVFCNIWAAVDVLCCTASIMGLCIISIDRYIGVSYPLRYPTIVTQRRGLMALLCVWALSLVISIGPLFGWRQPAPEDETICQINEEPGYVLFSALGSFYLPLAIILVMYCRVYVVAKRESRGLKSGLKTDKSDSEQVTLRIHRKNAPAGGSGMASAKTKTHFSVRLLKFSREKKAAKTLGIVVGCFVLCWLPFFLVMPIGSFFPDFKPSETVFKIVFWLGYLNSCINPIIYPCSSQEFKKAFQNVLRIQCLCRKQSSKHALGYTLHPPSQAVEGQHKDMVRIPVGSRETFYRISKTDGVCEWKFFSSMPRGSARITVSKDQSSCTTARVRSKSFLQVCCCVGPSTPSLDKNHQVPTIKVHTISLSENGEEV
Note: assay procedure not described here.

Sequence of Estrogen receptor beta (Q92731 whole entry): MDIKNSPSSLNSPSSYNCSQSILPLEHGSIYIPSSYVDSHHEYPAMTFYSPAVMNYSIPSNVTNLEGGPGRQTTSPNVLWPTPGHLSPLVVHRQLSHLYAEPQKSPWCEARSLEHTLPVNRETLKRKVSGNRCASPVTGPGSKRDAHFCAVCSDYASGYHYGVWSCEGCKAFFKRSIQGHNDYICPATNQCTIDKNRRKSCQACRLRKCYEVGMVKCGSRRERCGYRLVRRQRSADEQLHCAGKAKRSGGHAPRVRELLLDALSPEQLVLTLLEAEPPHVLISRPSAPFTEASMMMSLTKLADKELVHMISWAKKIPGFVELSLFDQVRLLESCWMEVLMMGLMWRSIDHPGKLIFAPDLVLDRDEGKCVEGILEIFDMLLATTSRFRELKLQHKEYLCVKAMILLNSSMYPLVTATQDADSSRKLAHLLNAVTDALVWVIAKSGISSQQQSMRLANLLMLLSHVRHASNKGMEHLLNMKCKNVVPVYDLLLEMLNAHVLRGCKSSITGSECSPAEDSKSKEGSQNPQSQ

Broadly, the AC50 is the midpoint of the concentration-response curve, whichever way the signal moves. High values mean weaker potency, low ones greater potency. Turning to `CC(C)N(CCCCOCC(=O)O)c1cnc(-c2ccccc2)c(-c2ccccc2)n1`, the AC50 at Androgen receptor [1] was 19 µM; on Androgen receptor [2], greater than 30 µM.
For `CC(=O)c1ccc(S(=O)(=O)NC(=O)NC2CCCCC2)cc1` [ACETOHEXAMIDE], the AC50 on Androgen receptor [3] was greater than 10 µM.
Still for that read-out and setting: the value for `COc1cc(C)c(/C=C/C(C)=C/C=C/C(C)=C/C(=O)O)c(C)c1C` [ACITRETIN] was 4.6 µM.
The same measure, in the same setting: the value for `CCC1(CCC(C)C)C(=O)NC(=O)NC1=O` [AMOBARBITAL] was greater than 10 µM.
`Cc1cc(=O)n(-c2ccccc2)n1C` [ANTIPYRINE]: the AC50 in assay [4] was greater than 10 µM; at Progesterone receptor it was greater than 30 µM; at Androgen receptor [3], greater than 30 µM.
On to `O=C(O)c1ccc(NC(=O)[C@H](Cc2ccc(O)cc2)NC(=O)c2ccccc2)cc1` [BENTIROMIDE], for which, at Androgen receptor [3], the AC50 was greater than 10 µM.
For the compound `Clc1ccc(CCC(Cn2ccnc2)Sc2c(Cl)cccc2Cl)cc1` (configuration not stated) [BUTOCONAZOLE], the AC50 is 9.2 µM on Androgen receptor [1] and greater than 30 µM at Androgen receptor [2].
On to `COc1cc(N)c(Cl)cc1C(=O)NC1CCN(CCCOc2ccc(F)cc2)CC1OC` (configuration not stated) [CISAPRIDE], for which the values for the AC50 (in assay [4]; on Progesterone receptor) were greater than 10 µM and greater than 30 µM, respectively.
For `CC(CN(C)C)C(C)(O)Cc1ccc(Cl)cc1` (configuration not stated) [CLOBUTINOL], the AC50 at Androgen receptor [3] is greater than 30 µM.
With `CCOC(=O)C(C)(C)Oc1ccc(Cl)cc1` [CLOFIBRATE], the AC50 in assay [4] was greater than 10 µM; at Progesterone receptor, greater than 30 µM; on Estrogen receptor beta it was greater than 30 µM.
As for `CCCCOc1ccc(C(=O)CCN2CCCCC2)cc1` [DYCLONINE], the concentration at half-maximal activity (AC50) in assay [4] is greater than 10 µM; at Progesterone receptor, greater than 30 µM; in assay [5] it was greater than 10 µM; at Estrogen receptor beta it was greater than 30 µM.
On to `CC(C)NC[C@H](O)COc1ccc(CC(N)=O)cc1` [ESATENOLOL], for which the AC50 in assay [4] was greater than 10 µM; on Progesterone receptor, greater than 30 µM; in assay [5], greater than 10 µM.
For the compound `CCOC(=O)c1ncn2c1CN(C)C(=O)c1cc(F)ccc1-2` [FLUMAZENIL], the AC50 was greater than 30 µM at Androgen receptor [1], greater than 30 µM at Androgen receptor [2] and greater than 10 µM at Androgen receptor [3].
In the case of `CC/C=C\C/C=C\C/C=C\C/C=C\C/C=C\CCCC(=O)OCC` [ICOSAPENT ETHYL], the results for the AC50 on Androgen receptor [1] and at Androgen receptor [2] were 23 µM and greater than 30 µM, respectively.
On to `NNC(=O)c1ccncc1` [ISONIAZID], for which the half-maximal activity concentration (AC50) in assay [4] is greater than 10 µM; at Progesterone receptor, greater than 30 µM; in assay [5] it was greater than 10 µM; on Estrogen receptor beta, greater than 30 µM.
As for `O=C1Nc2ccc(Cl)cc2C(c2ccccc2Cl)=NC1O` (configuration not stated) [LORAZEPAM], the AC50 in assay [4] was greater than 10 µM; at Progesterone receptor, 26.2 µM; in assay [5] it was greater than 10 µM; at Androgen receptor [3], greater than 30 µM; on Estrogen receptor beta it was greater than 30 µM.
Consider `CC(=O)[C@H]1CC[C@H]2[C@@H]3C[C@H](C)C4=CC(=O)CC[C@]4(C)[C@H]3[C@@H](O)C[C@]12C` [MEDRYSONE], for which the AC50 at Androgen receptor [3] was found to be 0.257 µM.
In the case of `Cc1ccnc2c1NC(=O)c1cccnc1N2C1CC1` [NEVIRAPINE], the AC50 in assay [4] is greater than 10 µM; at Progesterone receptor it was greater than 30 µM; in assay [5], greater than 10 µM; at Estrogen receptor beta, greater than 30 µM.
The compound `O=C(c1cc(Cc2n[nH]c(=O)c3ccccc23)ccc1F)N1CCN(C(=O)C2CC2)CC1` [OLAPARIB] returned an AC50 at Androgen receptor [3] greater than 30 µM.
As to `Fc1ccc([C@@H]2CCNC[C@H]2COc2ccc3c(c2)OCO3)cc1` [PAROXETINE], the results for the AC50 (in assay [4]; on Progesterone receptor; on Androgen receptor [3]) were greater than 10 µM, greater than 30 µM and greater than 30 µM, respectively.
On to `c1ccc(C2(N3CCCCC3)CCCCC2)cc1` [PHENCYCLIDINE], for which the AC50 on Androgen receptor [1] and on Androgen receptor [2] was greater than 30 µM in each case.
Turning to `OC[C@H]1O[C@@H](Oc2cc(O)cc(/C=C/c3ccc(O)cc3)c2)[C@H](O)[C@@H](O)[C@@H]1O` [PICEID], the AC50 on Androgen receptor [1] and at Androgen receptor [2] was greater than 30 µM throughout.
In the case of `O=C1CC[C@@H](C(=O)N2CSC[C@H]2C(=O)O)N1` [PIDOTIMOD] ([pGlu]-[Thz]-OH), the AC50 on Androgen receptor [1] and at Androgen receptor [2] was greater than 30 µM each time.
In the case of `COc1cc(C(=O)OCc2cccc(COC(=O)c3cc(OC)c(OC)c(OC)c3)n2)cc(OC)c1OC` [PIROZADIL], the AC50 at Androgen receptor [1] and on Androgen receptor [2] was greater than 30 µM each time.
`CCCN(CCC)S(=O)(=O)c1ccc(C(=O)O)cc1` [PROBENECID] yielded an AC50 at Androgen receptor [3] greater than 10 µM.
For `CCC(NC(C)C)C(O)c1ccc(O)c2[nH]c(=O)ccc12` (configuration not stated) [PROCATEROL], the concentration at half-maximal activity (AC50) at Androgen receptor [1] and at Androgen receptor [2] was greater than 30 µM throughout.
Turning to `CCC(=O)O[C@](Cc1ccccc1)(c1ccccc1)[C@H](C)CN(C)C` [PROPOXYPHENE], the half-maximal activity concentration (AC50) was greater than 10 µM in assay [4], greater than 30 µM at Progesterone receptor, greater than 10 µM in assay [5] and greater than 30 µM at Estrogen receptor beta.
In assay [4], `CCc1nc(N)nc(N)c1-c1ccc(Cl)cc1` [PYRIMETHAMINE] gave an AC50 greater than 10 µM.
In the case of `O=c1c(O)c(-c2ccc(O)c(O)c2)oc2cc(O)cc(O)c12` [QUERCETIN], the AC50 in assay [4] is greater than 10 µM; at Progesterone receptor, 14.1 µM; on Estrogen receptor beta, greater than 30 µM.
As for `CCN1CCCC1CNC(=O)c1cc(S(=O)(=O)CC)ccc1OC` (configuration not stated) [SULTOPRIDE], the AC50 at Androgen receptor [1] and at Androgen receptor [2] was greater than 30 µM in each case.
For the compound `C=CCN1CCc2nc(N)sc2CC1` [TALIPEXOLE], the concentration at half-maximal activity (AC50) on Androgen receptor [1] and at Androgen receptor [2] was greater than 30 µM each time.
For the compound `CCOC(=O)c1ccc(C#Cc2ccc3c(c2)C(C)(C)CCS3)nc1` [TAZAROTENE], the AC50 was greater than 10 µM in assay [4] and greater than 30 µM on Progesterone receptor.
As for `CCOC(=O)[C@@H](N)Cc1ccc(-c2cc(O[C@H](c3ccc(Cl)cc3-n3ccc(C)n3)C(F)(F)F)nc(N)n2)cc1` [TELOTRISTAT ETHYL], the AC50 at Androgen receptor [1] and at Androgen receptor [2] was greater than 30 µM each time.
For `CC(C(=O)O)c1ccc2c(c1)CC(=O)c1ccccc1S2` (configuration not stated) [ZALTOPROFEN], the half-maximal activity concentration (AC50) at Androgen receptor [1] and on Androgen receptor [2] was greater than 30 µM throughout.
Consider `CC(c1cc2ccccc2s1)N(O)C(N)=O` (configuration not stated) [ZILEUTON], for which, on Androgen receptor [3], the AC50 is greater than 30 µM.
